According to ChEMBL document CHEMBL1148617, “Design, synthesis, and structure-activity relationships of 1-,3-,8-, and 9-substituted-9-deazaxanthines at the human A2B adenosine receptor” (J Med Chem, 2006):

How the values were obtained:
[1] = molecular target: T1, Adenosine receptor A2b (Homo sapiens) (UniProt P29275); assay: Displacement of [3H]DPCPX from recombinant human adenosine A2B receptor expressed in HEK293 cells at 0.1 uM; assay type: cell-based
T1 sequence (whole entry): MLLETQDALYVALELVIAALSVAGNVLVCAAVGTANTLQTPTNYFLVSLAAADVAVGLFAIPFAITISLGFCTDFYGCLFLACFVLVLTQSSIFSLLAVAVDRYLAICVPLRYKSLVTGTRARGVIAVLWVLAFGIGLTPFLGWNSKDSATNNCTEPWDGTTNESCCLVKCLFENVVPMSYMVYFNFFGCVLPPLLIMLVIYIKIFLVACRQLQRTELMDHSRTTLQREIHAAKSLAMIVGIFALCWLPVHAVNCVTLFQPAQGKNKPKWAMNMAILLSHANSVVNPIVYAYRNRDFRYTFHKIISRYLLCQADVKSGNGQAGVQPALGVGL

[2] = molecular target: T1, Adenosine receptor A2b (Homo sapiens); assay: Displacement of [3H]DPCPX from recombinant human adenosine A2B receptor expressed in HEK293 cells at 0.01 uM
[3] = molecular target: Adenosine receptor A2a (Homo sapiens, UniProt P29274); assay: Displacement of [3H]ZM-241385 from recombinant human adenosine A2A receptor expressed in HeLa cells at 0.1 uM
Adenosine receptor A2a, sequence (P29274 whole entry): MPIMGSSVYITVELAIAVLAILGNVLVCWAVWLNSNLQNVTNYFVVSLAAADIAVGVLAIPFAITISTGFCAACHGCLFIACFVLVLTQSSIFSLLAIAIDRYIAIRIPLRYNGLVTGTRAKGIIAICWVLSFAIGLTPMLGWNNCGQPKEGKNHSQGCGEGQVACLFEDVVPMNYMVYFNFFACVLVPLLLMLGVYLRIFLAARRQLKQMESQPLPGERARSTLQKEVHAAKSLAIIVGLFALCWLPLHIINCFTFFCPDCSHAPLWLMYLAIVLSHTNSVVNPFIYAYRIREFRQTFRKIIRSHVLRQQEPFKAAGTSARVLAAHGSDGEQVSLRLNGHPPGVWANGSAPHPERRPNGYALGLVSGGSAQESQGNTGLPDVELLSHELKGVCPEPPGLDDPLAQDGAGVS

Compound	inhibition [1] [%]	inhibition [2] [%]	inhibition [3] [%]
CCCn1c(=O)c2[nH]c(-c3ccc(OCC(=O)Nc4cc(C)cc(C)n4)cc3)cc2n(CCC)c1=O	53	12	27
CCCn1c(=O)c2[nH]c(-c3ccc(OCC(=O)NC(CCl)c4ccccc4)cc3)cc2n(CCC)c1=O (stereo not given)	74	25	75
CC(C)Cn1c(=O)c2[nH]c(-c3ccc(OCC(=O)Nc4ccccc4)cc3)cc2n(C)c1=O	57	15	2
CCCn1c(=O)c2[nH]c(-c3ccc(OC(C(=O)Nc4ccc(F)cc4)c4ccccc4)cc3)cc2n(CCC)c1=O (stereo not given)	84	32	65
CC(Oc1ccc(-c2cc3c([nH]2)c(=O)n(C)c(=O)n3C)cc1)C(=O)O (stereo not given)	34	5	9
CCCn1c(=O)c2[nH]c(-c3ccc(OCC(=O)Nc4cnccn4)cc3)cc2n(CCC)c1=O	68	10	34
O=C(O)COc1ccc(-c2cc3c([nH]2)c(=O)n(CC(F)(F)F)c(=O)n3CC(F)(F)F)cc1	22	16	19
CCCn1c(=O)c2[nH]c(-c3ccc(OC(C)(C)C(=O)Nc4ccc(Br)cc4)cc3)cc2n(CCC)c1=O	87	49	54
CN(C(=O)COc1ccc(-c2cc3c([nH]2)c(=O)n(C)c(=O)n3C)cc1)c1ccccc1	61	15	0
CCCn1c(=O)n(C)c(=O)c2[nH]c(-c3ccc(OCC(=O)Nc4ccc(Br)cc4)cc3)cc21	84	–	91
Cn1c(=O)c2[nH]c(-c3ccc(OCC(=O)O)cc3)c(Br)c2n(C)c1=O	24	–	4
O=C(COc1ccc(-c2cc3c([nH]2)c(=O)n(CC2CC2)c(=O)n3CC2CC2)cc1)Nc1ccc(Br)cc1	94	43	89
CCCn1c(=O)c2nc(-c3ccc(OCC(N)=O)cc3)[nH]c2n(CCC)c1=O	56	11	10
CCCn1c(=O)c2[nH]c(-c3ccc(OCC(=O)Nc4cccc(C)n4)cc3)cc2n(CCC)c1=O	68	20	45
CCOC(=O)c1ccc(NC(=O)COc2ccc(-c3cc4c([nH]3)c(=O)n(C)c(=O)n4C)cc2OC)cc1	47	10	0
O=C(O)COc1ccc(-c2cc3c([nH]2)c(=O)n(CC2CC2)c(=O)n3CC2CC2)cc1	69	27	40
CCCn1c(=O)c2[nH]c(-c3ccc(OCC(=O)NCc4ccncc4)cc3)cc2n(C)c1=O	49	27	3
CCCn1c(=O)c2[nH]c(-c3ccc(OCC(=O)Nc4cccnc4)cc3)cc2n(CCC)c1=O	83	19	48
CCCn1c(=O)c2[nH]c(-c3ccc(OC(C(=O)Nc4ccccc4)c4ccccc4)cc3)cc2n(CCC)c1=O (stereo not given)	89	44	75
CCCn1c(=O)c2[nH]c(-c3ccc(OC(C(=O)O)c4ccccc4)cc3)cc2n(CCC)c1=O (stereo not given)	47	10	5
COc1cc(NC(=O)COc2ccc(-c3cc4c([nH]3)c(=O)n(C)c(=O)n4C)cc2)nc(OC)n1	50	12	14
O=C(COc1ccc(-c2cc3c([nH]2)c(=O)n(CC(F)(F)F)c(=O)n3CC(F)(F)F)cc1)Nc1ccc(Br)cc1	79	29	11
CCCn1c(=O)c2[nH]c(-c3ccc(OCC(=O)Nc4cc(F)ccc4O)cc3)cc2n(CCC)c1=O	89	29	73
CCCn1c(=O)c2[nH]c(-c3ccc(OC(C)(C)C(=O)O)cc3)cc2n(C)c1=O	50	8	3
CCCn1c(=O)c2[nH]c(-c3ccc(N(C=O)CC(=O)Nc4ccc(F)cc4)cc3)cc2n(CCC)c1=O	93	24	89
CCCn1c(=O)c2[nH]c(-c3ccc(OCC(=O)O)cc3OC)cc2n(CCC)c1=O	8	–	10
CCCn1c(=O)c2[nH]c(-c3ccc(OCC(=O)O)cc3Cl)cc2n(CCC)c1=O	10	14	6
Cn1c(=O)c2[nH]c(-c3cccc(OCC(=O)O)c3)cc2n(C)c1=O	23	–	15
